Results taken from ChEMBL document CHEMBL5532656, “Novel ligustilide derivatives target quorum sensing system LasR/LasB and relieve inflammatory response against Pseudomonas aeruginosa infection” (Eur J Med Chem, 2024).
Activity calls are given as the source filed them. The rule behind the calls is not given here.

Columns and labels:
Danio rerio = species: Danio rerio; assay: Inhibition of macrophage migration in 4 days post fertilized Zebra fish AB embryo assessed as reduction in green fluorescence at 10 micromol/L measured after 4 to 6 hrs by fluorescence microscope based analysis; format: functional, organism-based; settings: dose 10.0 µmol/L, time […]
[1] = Toxicity in BALB/c mouse assessed as effect on spleen at 2 to 4 mg/kg, PO measured after 7 days by H and E staining based analysis; format: organism-based; settings: in vivo, 168 h, dose 2-4 mg/kg, time 7 day
RAW264.7 [2] = assay: Antiinflammatory activity in mouse RAW264.7 cells assessed as reduction in TNF alpha mRNA expression at 2.5 to 10 uM by RT-PCR analysis; format: functional, cell-based; settings: dose 2.5-10 µM
Mus musculus [3] = assay: Anti-inflammatory activity against LPS-induced acute lung injury mouse model assessed as reduction in COX-2 mRNA expression at 1 to 2 mg/kg, po preincubated for 4 hrs followed by LPS stimulation and measured after 6 hrs; format: functional, organism-based; settings: dose 1-2 mg/kg, time 10.0 hrs
RAW264.7 [4] = assay: Antiinflammatory activity in mouse RAW264.7 cells assessed as reduction in IL-1 beta mRNA expression at 2.5 to 10 uM by RT-PCR analysis; format: functional, cell-based; settings: dose 2.5-10 µM
RAW264.7 [5] = assay: Cytotoxicity against mouse RAW264.7 cells assessed as reduction in cell viability at 50 uM measured after 24 hrs by MTT assay; format: functional, cell-based
RAW264.7 [6] = assay: Antiinflammatory activity in LPS-induced mouse RAW264.7 cells assessed as decrease in COX-2 expression level pretreated for 3 hrs followed by LPS stimulation and measured after 24 hrs by Western blot analysis; format: functional, cell-based; settings: dose 1.25-10 µmol/L, time 27.0 hrs
RAW264.7 [7] = assay: Antiinflammatory activity in mouse RAW264.7 cells assessed as reduction in iNOS mRNA expression at 2.5 to 10 uM by RT-PCR analysis; format: functional, cell-based; settings: dose 2.5-10 µM
Mus musculus [8] = assay: Anti-inflammatory activity against LPS-induced acute lung injury mouse model assessed as downregulation of IL-6 level administered as po dose preincubated for 4 hrs followed by LPS stimulation and measured after 6 hrs by ELISA method; format: functional, organism-based; settings: dose 1-2 mg/kg, time 10.0 hrs
RAW264.7 [9] = assay: Antiinflammatory activity in LPS-induced mouse RAW264.7 cells assessed as inhibition of IL-6 production pretreated for 3 hrs followed by LPS stimulation and measured after 24 hrs by ELISA method; format: functional, cell-based
RAW264.7 [10] = assay: Antiinflammatory activity in mouse RAW264.7 cells assessed as reduction in COX-2 mRNA expression at 2.5 to 10 uM by RT-PCR analysis; format: functional, cell-based; settings: dose 2.5-10 µM
Mus musculus [11] = assay: Protection against LPS-induced acute lung injury mouse model assessed as inhibition of edema at 1 to 2 mg/kg, po preincubated for 4 hrs followed by LPS stimulation and measured after 6 hrs by H and E staining based analysis; format: functional, organism-based; settings: dose 1-2 mg/kg, time 10.0 hrs
RAW264.7 [12] = assay: Antiinflammatory activity in LPS-induced mouse RAW264.7 cells assessed as decrease in NLRP3 expression level pretreated for 3 hrs followed by LPS stimulation and measured after 24 hrs by Western blot analysis; format: functional, cell-based; settings: dose 1.25-10 µmol/L, time 27.0 hrs
[13] = Inhibition of quorum sensing system in Pseudomonas aeruginosa PAO1-lasB-gfp assessed as reduction in GFP expression incubated for 14 hrs
RAW264.7 [14] = assay: Antiinflammatory activity in LPS-induced mouse RAW264.7 cells assessed as inhibition of NF-kappaB p65 expression pretreated for 3 hrs followed by LPS stimulation and measured after 24 hrs by Western blot analysis; format: functional, cell-based; settings: dose 1.25-10 µmol/L, time 27.0 hrs
Mus musculus [15] = assay: Anti-inflammatory activity against LPS-induced acute lung injury mouse model assessed as reduction in IL-6 mRNA expression at 1 to 2 mg/kg, po preincubated for 4 hrs followed by LPS stimulation and measured after 6 hrs; format: functional, organism-based; settings: dose 1-2 mg/kg, time 10.0 hrs
Mus musculus [16] = assay: Protection against LPS-induced acute lung injury mouse model assessed as inhibition of alveolar wall thickening at 1 to 2 mg/kg, po preincubated for 4 hrs followed by LPS stimulation and measured after 6 hrs by H and E staining based analysis; format: functional, organism-based; settings: dose 1-2 mg/kg, time 10.0 hrs
[17] = Cytotoxicity against African green monkey Vero cells assessed as reduction in cell viability at <20 uM measured after 24 hrs by MTT assay; format: toxicity, cell-based; settings: chlorocebus sabaeus
RAW264.7 [18] = assay: Antiinflammatory activity in LPS-induced mouse RAW264.7 cells assessed as inhibition of TNF-alpha production pretreated for 3 hrs followed by LPS stimulation and measured after 24 hrs by ELISA method; format: functional, cell-based
Mus musculus [19] = assay: Anti-inflammatory activity against LPS-induced acute lung injury mouse model assessed as downregulation of IL-1 beta level administered as po dose preincubated for 4 hrs followed by LPS stimulation and measured after 6 hrs by ELISA method; format: functional, organism-based; settings: dose 1-2 mg/kg, time 10.0 hrs
RAW264.7 [20] = assay: Inhibition of LPS-induced ROS production in mouse RAW264.7 cells by DCFH-DA staining based fluorescence method; format: functional, cell-based
[21] = Toxicity in BALB/c mouse assessed as effect on liver at 2 to 4 mg/kg, PO measured after 7 days by H and E staining based analysis; format: organism-based; settings: in vivo, 168 h, dose 2-4 mg/kg, time 7 day
RAW264.7 [22] = assay: Antiinflammatory activity in mouse RAW264.7 cells assessed as reduction in IL-6 mRNA expression at 2.5 to 10 uM by RT-PCR analysis; format: functional, cell-based; settings: dose 2.5-10 µM
Mus musculus [23] = assay: Anti-inflammatory activity against LPS-induced acute lung injury mouse model assessed as downregulation of TNF-alpha level administered as po dose preincubated for 4 hrs followed by LPS stimulation and measured after 6 hrs by ELISA method; format: functional, organism-based; settings: dose 1-2 mg/kg, time 10.0 hrs
[24] = Toxicity in BALB/c mouse assessed as adverse effect at 2 to 4 mg/kg, IG; format: organism-based; settings: in vivo, po, dose 2-4 mg/kg
Mus musculus [25] = assay: Anti-inflammatory activity against LPS-induced acute lung injury mouse model assessed as reduction in iNOS mRNA expression at 1 to 2 mg/kg, po preincubated for 4 hrs followed by LPS stimulation and measured after 6 hrs; format: functional, organism-based; settings: dose 1-2 mg/kg, time 10.0 hrs
RAW264.7 [26] = assay: Inhibition of ERK signaling in mouse RAW264.7 cells assessed as reduction in LPS induced ERK phosphorylation by Western blot analysis; format: cell-based
[27] = Toxicity in BALB/c mouse assessed as effect on kidney at 2 to 4 mg/kg, PO measured after 7 days by H and E staining based analysis; format: organism-based; settings: in vivo, 168 h, dose 2-4 mg/kg, time 7 day
Mus musculus [28] = assay: Protection against LPS-induced acute lung injury mouse model assessed as inhibition of neutrophil infiltration at 1 to 2 mg/kg, po preincubated for 4 hrs followed by LPS stimulation and measured after 6 hrs by H and E staining based analysis; format: functional, organism-based; settings: dose 1-2 mg/kg, time 10.0 hrs
[29] = Toxicity in BALB/c mouse assessed as effect on animal health at 2 to 4 mg/kg, IG; format: organism-based; settings: in vivo, po, dose 2-4 mg/kg
Mus musculus [30] = assay: Anti-inflammatory activity against LPS-induced acute lung injury mouse model assessed as reduction in myeloperoxidase activity at 1 to 2 mg/kg, po preincubated for 4 hrs followed by LPS stimulation and measured after 6 hrs by spectrophotometer analysis; format: functional, organism-based; settings: dose 1-2 mg/kg, time 10.0 hrs
Mus musculus [31] = assay: Anti-inflammatory activity against LPS-induced acute lung injury mouse model assessed as reduction in TNF-alpha mRNA expression at 1 to 2 mg/kg, po preincubated for 4 hrs followed by LPS stimulation and measured after 6 hrs; format: functional, organism-based; settings: dose 1-2 mg/kg, time 10.0 hrs
RAW264.7 [32] = assay: Antiinflammatory activity in LPS-induced mouse RAW264.7 cells assessed as decrease in iNOS expression level pretreated for 3 hrs followed by LPS stimulation and measured after 24 hrs by Western blot analysis; format: functional, cell-based; settings: dose 1.25-10 µmol/L, time 27.0 hrs
Pseudomonas aeruginosa = assay: Anti-biofilm activity against Pseudomonas aeruginosa PAO1 assessed as reduction in biofilm formation incubated for 24 hrs by crystal violet staning based analysis; format: functional, organism-based

With CCCCC1(O)C2=C(C=CCC2)C(=O)N1Cc1ccc(C(F)(F)F)cc1 (stereo unspecified) the inhibition (Danio rerio) was “Active”, the Activity [1] was “Non-Toxic” and the Activity (RAW264.7 [2]) was “Active”. For the same compound, the Activity (Mus musculus [3]) was “Active”, the Activity (RAW264.7 [4]) was “Active” and the Activity (RAW264.7 [5]) was “Active”. The Activity (RAW264.7 [6]) was “Dose-Dependent Effect”, the Activity (RAW264.7 [7]) was “Active” and the Activity (Mus musculus [8]) was “Dose-Dependent Effect”. For the same compound, the IC50 (RAW264.7 [9]) was 2610 nM, the Activity (RAW264.7 [10]) was “Active” and the Activity (Mus musculus [11]) was “Active”. For the same compound, the Activity (RAW264.7 [12]) was “Dose-Dependent Effect”, the IC50 [13] was 8.7 µM and the inhibition ([13]; dose 0.625-10 µM) was “Dose-Dependent Effect”. For the same compound, the Activity (RAW264.7 [14]) was “Dose-Dependent Effect”, the Activity (Mus musculus [15]) was “Active” and the Activity (Mus musculus [16]) was “Active”. The Activity [17] was “Non-Toxic”, the IC50 (RAW264.7 [18]) was 6.2 µM and the Activity (Mus musculus [19]) was “Dose-Dependent Effect”. For the same compound, the IC50 (RAW264.7 [20]) was 1440 nM, the Activity [21] was “Non-Toxic” and the Activity (RAW264.7 [22]) was “Active”. The Activity (Mus musculus [23]) was “Dose-Dependent Effect”, the Activity [24] was “Non-Toxic” and the Activity (Mus musculus [25]) was “Active”. The inhibition (RAW264.7 [26]) was “Active”, the Activity [27] was “Non-Toxic” and the Activity (Mus musculus [28]) was “Active”. For the same compound, the Activity [29] was “Non-Toxic”, the Activity (Mus musculus [30]) was “Active” and the Activity (Mus musculus [31]) was “Active”. The Activity (RAW264.7 [32]) was “Dose-Dependent Effect”, the IC50 (Pseudomonas aeruginosa; PAO1, 24 h) was 7.4 µM and the Activity (Pseudomonas aeruginosa; dose 0.625-10 µM) was “Dose-Dependent Effect”.
